pIC50: −log10 of the molar value. Like-named read-outs stand apart in the source and are kept apart here.

IC50 data for 21 compounds are collected here from patent publication US20230031406A1, “COMPOUNDS AND COMPOSITIONS FOR TREATING CONDITIONS ASSOCIATED WITH NLRP ACTIVITY” (Novartis AG, priority 2018, published 2023).

This assay concerns PMA-differentiated THP-1 cells. Put plainly: IL-1β production in PMA-differentiated THP-1 cells stimulated with gramicidin (hTHP-1 assay containing 2% fetal bovine serum; Procedures 1 and 2). The conditions noted are these: 2% fetal bovine serum. The assay is classed as cell-based, human. The essentials:
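IL-1β release from PMA-differentiated THP-1 macrophage-like cells was triggered by 5 μM gramicidin for 2 h after 1 h compound exposure, then measured by HTRF.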

Where [1] appears, read: Table B1, class symbols, read-out: Average IC50 of compounds in hTHP-1 assay: hTHP-1 IC50.
The mark [2] stands for this setting: Homo sapiens, THP-1, Table B2, class symbols, read-out: hTHP-1 IC50.
Where [3] appears, read: Homo sapiens, THP-1, Table B3, hTHP-1 assay, class symbols, read-out: IC50.
Where [4] appears, read: Table B2, class symbols, read-out: hTHP-1 IC50.
[5] abbreviates: Homo sapiens, THP-1, Table B1, class symbols, read-out: Average IC50 of compounds in hTHP-1 assay: hTHP-1 IC50.

Take `CC1CCc2c1nc1c(c2NC(=O)N=S(N)(=O)c2cc(C(C)(C)O)cs2)CCC1` (single isomer, unassigned) [Compound 141b, (R,R/S) or (S,R/S)-4-(2-hydroxypropan-2-yl)-N′-((3-methyl-1,2,3,5,6,7-hexahydro-dicyclopenta[b,e]pyridin-8-yl)carbamoyl)thiophene-2-sulfonimidamide]: the pIC50 under setting [1] was 6.70 to 7.40. For the compound `CC1CCc2c1nc1c(c2NC(=O)N=S(N)(=O)c2ccn(C(C)C)n2)CCC1` (single isomer, unassigned) [Compound 129bb, (S,R) or (S,S)-1-isopropyl-N′-((3-methyl-1,2,3,5,6,7-hexa-hydrodicyclo-penta[b,e]pyridin-8-yl)carbamoyl)-1H-pyrazole-3-sulfonimidamide], the pIC50 under setting [1] was 4.52 to 5.30. Turning to `CCc1ccsc1S(N)(=O)=NC(=O)Nc1c2c(nc3c1CC[C@H]3C)CCC2` (stereo partly drawn) [Compound 725a], the pIC50 under setting [2] is 5.30 to 6.00.

In the case of `CC(C)(O)c1cc(S(N)(=O)=NC(=O)Nc2c3c(nc4c2CCC4(C)C)CCC3)nn1-c1ccc(F)cc1` (stereo not drawn) [Compound 704, N′-((3,3-dimethyl-1,2,3,5,6,7-hexahydrodicyclopenta[b,e]pyridin-8-yl)carbamoyl)-1-(4-fluorophenyl)-5-(2-hydroxypropan-2-yl)-1H-pyrazole-3-sulfonimidamide], the pIC50 under setting [2] was 5.30 to 6.00. For the compound `CCn1ccc(S(N)(=O)=NC(=O)Nc2c(C)c(C(F)(F)F)nc3c2CCC3)n1` (stereo not drawn) [Example 634, 1-Ethyl-N′-((3-methyl-2-(trifluoromethyl)-6,7-dihydro-5H-cyclopenta[b]pyridin-4-yl)carbamoyl)-1H-pyrazole-3-sulfonimidamide], the negative logarithm of the IC50 (pIC50) under setting [3] is 5.30 to 6.00.

Turning to `Cc1c(C(F)(F)F)nc2c(c1NC(=O)N=S(N)(=O)c1cc(CO)n(C(C)C)n1)CCC2` (stereo not drawn) [Example 585, 5-(Hydroxymethyl)-1-isopropyl-N′-((3-methyl-2-(trifluoromethyl)-6,7-dihydro-5H-cyclopenta[b]pyridin-4-yl)carbamoyl)-1H-pyrazole-3-sulfonimidamide], under setting [3], the negative logarithm of the IC50 (pIC50) is 5.30 to 6.00. For `Cc1c(C(C)C)nc2c(c1NC(=O)N=S(N)(=O)c1cc(C(C)(C)O)cs1)CCC2` (single isomer, unassigned) [Compound 681a, (S) or (R)-4-(2-Hydroxypropan-2-yl)-N′-((2-isopropyl-3-methyl-6,7-dihydro-5H-cyclopenta[b]pyridin-4-yl)carbamoyl) thiophene-2-sulfonimidamide], the negative-log IC50 (pIC50) under setting [4] is 5.30 to 6.00. In the case of `CC(C)c1nc(C(F)(F)F)nc(C(C)C)c1NC(=O)N=S(N)(=O)c1sc(C(C)(C)O)nc1CO` (stereo not drawn) [Compound 713], the pIC50 under setting [2] is 5.30 to 6.00.

For the compound `Cc1c(C(F)(F)F)nc2c(c1NC(=O)N=S(N)(=O)c1nn(C(F)F)cc1F)CCC2` (stereo not drawn) [Compound 717], the pIC50 under setting [2] is 6.00 to 6.70. For the compound `Cc1c(C(F)(F)F)nc2c(c1NC(=O)N=S(N)(=O)c1ccn(C)n1)CCC2` (stereo not drawn) [Compound 730], the negative-log IC50 (pIC50) under setting [2] is 4.52 to 5.30. As to `CC1(C)CCc2c1nc1c(c2NC(=O)N=S(N)(=O)c2ccn(C(F)F)n2)CCC1` (single isomer, unassigned) [Compound 122b, (S) or (R)-1-(difluoromethyl)-N′-((3,3-dimethyl-1,2,3,5,6,7-hexahydrodicyclo-penta[b,e]pyridin-8-yl)carbamoyl)-1H-pyrazole-3-sulfonimidamide], under setting [1], the pIC50 was 4.52 to 5.30. For the compound `Cc1c(CC(F)(F)F)nc2c(c1NC(=O)N=S(N)(=O)c1nn(C(F)F)cc1F)CCC2` (single isomer, unassigned) [Example 724, (S) or (R)-1-(difluoromethyl)-4-fluoro-N′-((3-methyl-2-(2,2,2-trifluoroethyl)-6,7-dihydro-5H-cyclopenta[b]pyridin-4-yl)carbamoyl)-1H-pyrazole-3-sulfonimidamide], the pIC50 (Homo sapiens, THP-1, Table B3, hTHP-1 assay, numeric values, read-out: IC50) is below 4.52.

With `Cc1cc(C(C)(C)O)sc1S(N)(=O)=NC(=O)Nc1c2c(nc3c1CCC3)CCC2` (stereo not drawn) [Compound 695, N-((1,2,3,5,6,7-hexahydrodicyclopenta[b,e]pyridin-8-yl)carbamoyl)-5-(2-hydroxypropan-2-yl)-3-methylthiophene-2-sulfonimidamide], the negative logarithm of the IC50 (pIC50) under setting [2] is 4.52 to 5.30.

For the compound `CC(C)(O)c1ncc(S(N)(=O)=NC(=O)Nc2c3c(nc4c2CCC4(C)C)CCC3)s1` (stereo not drawn) [Compound 153, N′-((3,3-dimethyl-1,2,3,5,6,7-hexahydrodicyclopenta[b,e]pyridin-8-yl)carbamoyl)-2-(2-hydroxypropan-2-yl)thiazole-5-sulfonimidamide], under setting [5], the pIC50 is 6.70 to 7.40. As to `Cc1c(C(F)(F)F)nc2c(c1NC(=O)N=S(N)(=O)c1cnc(C(C)(O)CO)s1)CCC2` (single isomer, unassigned) [Compound 605e, (R, S) or (S, S)-2-(1,2-Dihydroxypropan-2-yl)-N′-((3-methyl-2-(trifluoromethyl)-6,7-dihydro-5H-cyclopenta[b]pyridin-4-yl)carbamoyl) thiazole-5-sulfonimidamide], the pIC50 under setting [4] was 4.52 to 5.30.

As for `CC(=O)c1csc(S(N)(=O)=NC(=O)Nc2c3c(nc4c2CC[C@H]4C)CCC3)c1` (single isomer, unassigned) [Example 665, (R) or (S)-4-acetyl-N′-(((R)-3-methyl-1,2,3,5,6,7-hexahydrodicyclopenta[b,e]pyridin-8-yl)carbamoyl)thiophene-2-sulfonimidamide], the pIC50 (Table B3, hTHP-1 assay, class symbols, read-out: IC50) was 6.00 to 6.70. Consider `Cc1sc(S(N)(=O)=NC(=O)Nc2c3c(nc4c2CCC4C)CCC3)nc1C(C)(C)O` (single isomer, unassigned) [Compound 104a, (R,R/S) or (S,R/S)-4-(2-hydroxypropan-2-yl)-5-methyl-N′-((3-methyl-1,2,3,5,6,7-hexahydrodicyclo-penta[b,e]pyridin-8-yl)carba-moyl)thiazole-2-sulfonimidamide], for which the pIC50 under setting [1] was 6.00 to 6.70.

As for `CC1CCc2c1nc1c(c2NC(=O)N=S(N)(=O)c2ccc(CN(C)C)cc2)CCC1` (single isomer, unassigned) [Compound 134bb, (R,S) or (R,R)-4-((dimethyl-amino)methyl)-N′-((3-methyl-1,2,3,5,6,7-hexa-hydrodicyclo-penta[b,e]pyridin-8-yl)carbamoyl)benzene-sulfonamidamide], the pIC50 under setting [1] was 4.52 to 5.30.

On to `C[C@@H]1CCc2c1nc1c(c2NC(=O)N=[S@](N)(=O)c2cc([C@@H](C)O)cs2)CCC1` (single isomer, unassigned) [Example 661, (S)-4-((R) or (S)-1-hydroxyethyl)-N′-(((R)-3-methyl-1,2,3,5,6,7-hexahydrodicyclopenta[b,e]pyridin-8-yl)carbamoyl) thiophene-2-sulfonimidamide], for which the negative-log IC50 (pIC50) under setting [3] was 5.30 to 6.00.

As to `CC(C)c1cnc(F)c(C(C)C)c1NC(=O)N=S(N)(=O)c1cnc(C(C)(C)O)s1` (single isomer, unassigned) [Compound 115b, (R) or (S)-N′-((2-fluoro-3,5-diisopropylpyridin-4-yl)carbamoyl)-2-(2-hydroxypropan-2-yl)thiazole-5-sulfonimidamide], under setting [4], the pIC50 is 5.30 to 6.00. For the compound `CC(C)c1ccnc(C(C)C)c1NC(=O)N=S(N)(=O)c1cnc(C(C)(C)O)s1` (stereo not drawn) [Compound 110, N′-((2,4-diisopropylpyridin-3-yl)carbamoyl)-2-(2-hydroxypropan-2-yl)thiazole-5-sulfonimidamide], under setting [5], the pIC50 was 4.52 to 5.30.
